≈ marks a conversion by molar mass, not a printed value. Values belong to the molecule of their own block, whether it stands above or below them.
What was measured:
[1] = Solubilization of actives in 3 wt-% polymer solution (high-throughput, UV/VIS); assay type: physicochemical
Experimental: Solubilization measurements were carried out with a highthroughput screening robot. This set up dosed 10 mg solid active and […] of the respective 3 wt-% liquid polymer solution (in CIPAC water D) into wells on a micro titer plate. After the addition of stirring bars and 24 hours incubation time the samples were filtrated via polypropylene filters in order to separate dissolved active and its solid form ated. The amount of solubilized active was determined via UV/VIS spectroscopy.

[2] = at 20° C.; cited from earlier work
[3] = 10 mg solid active, without polymer or in 3 wt-% polymer solution in CIPAC water D, 24 hours

Solubility of BAS 750 F [1, 3]: 15 pmm
SMILES: CC(O)(Cn1cncn1)c1ccc(Oc2ccc(Cl)cc2)cc1C(F)(F)F (centres unmarked) [BAS 750 F, 2-[4-(4-chlorophenoxy)-2-(trifluoromethyl)phenyl]-1-(1H-1,2,4-triazol-1-yl)propan-2-ol]

SMILES: N#Cc1nn(-c2c(Cl)cc(C(F)(F)F)cc2Cl)c(N)c1[S+]([O-])C(F)(F)F (centres unmarked) [Fipronil, fipronil]
Solubility of fipronil [1]: 12 pmm

Solubility of carbamazepine [1, 3]: 181 pmm
SMILES: NC(=O)N1c2ccccc2C=Cc2ccccc21 [carbamazepine]

Solubility of fluxapyroxad ([1]; 10 mg solid active, alone or in 3 wt-% polymer solution in CIPAC water D, 24 hours): 10 pmm
SMILES: Cn1cc(C(=O)Nc2ccccc2-c2cc(F)c(F)c(F)c2)c(C(F)F)n1 [fluxapyroxad]
water solubility [2]: 4 µg/mL (≈ 10.5 µM)

From patent US10196482B2, “Mixed alkyl terminated polyether dendrons” (BASF SE, priority 2014, dated 2019)
